# Laboratory results: publication PMC9798004 (Frontiers in Psychiatry, 2022)
# “Also recorded” adds a separate entry of the source. Read-outs that look alike come from different tables or passages of the source.
# Assays:
# [1] = test system: GPCR off-targets with >5-fold difference in S/N and CoV (n = 36); experiment: Follow-up concentration-response β-arrestin assays, panel of hits; assay type: cell-based
# Method: Follow up experiments were prioritized based on the difference between S/N and CoV. Targets with a >5-fold difference between S/N and CoV were investigated for their potential contribution to the AMB-FUBINACA toxidrome with 10-point concentration-response curves generated in technical replicate (range 1.5–30 μM) using the EC80 of the relevant agonist, where applicable in antagonist mode. Simultaneous agonist and antagonist curves were run in parallel to ensure reliability of the assay (see Supplementary Table 2), with both RC50 and signal to background aligning with historical averages, and Z' >0.5. RC50 was estimated using a four-parameter fit (CBIS Data Analysis Suite, ChemInnovation, San Diego, CA) on normalized data.
# DRD5 = DRD5 (Homo sapiens, UniProt P21918); experiment: PathHunter β-arrestin assay; assay type: cell-based; conditions: antagonist mode vs EC80 of control agonist, 10-point curve
# MC4R = MC4R (Homo sapiens, UniProt P32245); experiment: PathHunter β-arrestin assay; assay type: cell-based; conditions: antagonist mode vs EC80 of control agonist, 10-point curve
# MC3R = MC3R (Homo sapiens, UniProt P41968); experiment: PathHunter β-arrestin assay; assay type: cell-based; conditions: antagonist mode vs EC80 of control agonist, 10-point curve
# ADRA2A = target: T1, ADRA2A (Homo sapiens, UniProt P08913); experiment: PathHunter β-arrestin assay; assay type: cell-based; conditions: antagonist mode vs EC80 of control agonist, 10-point curve
# T1 construct: host or cells: CHO
# CHRM3 = CHRM3 (Homo sapiens, UniProt P20309); assay type: cell-based
# CALCRL-RAMP2 = CALCRL-RAMP2 (Homo sapiens, UniProt O60895+Q16602); experiment: PathHunter β-arrestin assay; assay type: cell-based; conditions: antagonist mode vs EC80 of control agonist, 10-point curve
# ADRA2B = ADRA2B (Homo sapiens, UniProt P18089); assay type: cell-based
# CB1 = test system: CB1; set-up: method as in PMID 31513380; conditions: 10 μM; cited from earlier work
# GPR35 = GPR35 (Homo sapiens, UniProt Q9HC97); experiment: PathHunter β-arrestin assay; assay type: cell-based; conditions: antagonist mode, up to 30 μM
# MCHR1 = MCHR1 (Homo sapiens, UniProt Q99705); experiment: PathHunter β-arrestin assay; assay type: cell-based; conditions: antagonist mode, up to 30 μM
# CALCR-RAMP2 = CALCR-RAMP2 (Homo sapiens, UniProt O60895+P30988); experiment: PathHunter β-arrestin assay; assay type: cell-based; conditions: antagonist mode vs EC80 of control agonist, 10-point curve
# GALR2 = target: T2, GALR2 (Homo sapiens, UniProt O43603); experiment: PathHunter β-arrestin assay; assay type: cell-based; conditions: antagonist mode, up to 30 μM
# T2 construct: purchased Eurofins DiscoverX (PathHunter gpcrMAX)
# DRD2L = DRD2L (Homo sapiens, UniProt P14416); experiment: PathHunter β-arrestin assay; assay type: cell-based; conditions: antagonist mode, up to 30 μM
# CNR1 (CB1) = target: T3, CNR1 (CB1) (Homo sapiens, UniProt P21554); experiment: PathHunter β-arrestin assay; assay type: cell-based; conditions: agonist mode
# T3 construct: host or cells: CHO
# OXTR = OXTR (Homo sapiens, UniProt P30559); experiment: PathHunter β-arrestin assay; assay type: cell-based; conditions: antagonist mode vs EC80 of control agonist, 10-point curve
# HCRTR2 = HCRTR2 (Homo sapiens, UniProt O43614); experiment: PathHunter β-arrestin assay; assay type: cell-based; conditions: antagonist mode vs EC80 of control agonist, 10-point curve
# HRH1 = HRH1 (Homo sapiens, UniProt P35367); assay type: cell-based
# MC5R = MC5R (Homo sapiens, UniProt P33032); experiment: PathHunter β-arrestin assay; assay type: cell-based; conditions: antagonist mode vs EC80 of control agonist, 10-point curve
# HCRTR1 = target: T4, HCRTR1 (Homo sapiens, UniProt O43613); experiment: PathHunter β-arrestin assay; assay type: cell-based
# T4 sequence (O43613 1-425): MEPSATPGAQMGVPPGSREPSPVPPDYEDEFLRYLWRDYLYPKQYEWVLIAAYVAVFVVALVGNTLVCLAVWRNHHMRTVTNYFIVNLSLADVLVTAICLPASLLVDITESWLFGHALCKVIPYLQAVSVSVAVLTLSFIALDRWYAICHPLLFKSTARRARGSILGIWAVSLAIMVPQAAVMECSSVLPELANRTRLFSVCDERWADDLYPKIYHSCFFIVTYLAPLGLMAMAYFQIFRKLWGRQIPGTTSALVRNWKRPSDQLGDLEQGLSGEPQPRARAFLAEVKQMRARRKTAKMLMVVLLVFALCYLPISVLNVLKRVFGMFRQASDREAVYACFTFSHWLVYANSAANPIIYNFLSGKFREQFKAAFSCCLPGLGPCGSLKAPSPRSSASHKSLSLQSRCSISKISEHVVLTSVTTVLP
# FPR1 = target: T5, FPR1 (Homo sapiens, UniProt P21462); experiment: PathHunter β-arrestin assay; assay type: cell-based; conditions: antagonist mode vs EC80 of control agonist, 10-point curve
# T5 sequence (P21462 1-350): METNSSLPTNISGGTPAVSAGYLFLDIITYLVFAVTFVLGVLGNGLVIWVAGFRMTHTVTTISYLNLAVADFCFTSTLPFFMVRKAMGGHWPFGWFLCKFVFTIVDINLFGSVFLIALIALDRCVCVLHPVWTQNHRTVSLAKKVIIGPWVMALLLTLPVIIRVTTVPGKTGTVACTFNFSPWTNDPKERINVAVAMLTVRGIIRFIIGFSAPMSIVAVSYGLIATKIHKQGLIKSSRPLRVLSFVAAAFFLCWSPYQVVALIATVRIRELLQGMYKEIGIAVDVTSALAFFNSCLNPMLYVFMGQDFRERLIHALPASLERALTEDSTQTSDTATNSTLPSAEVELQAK
# 168 GPCRs = experiment: gpcrMAX panel 30 μM single-point β-arrestin screen (agonist and antagonist mode); assay type: cell-based; conditions: antagonist mode
# Method: Activity, or a “hit,” was defined as >30% in agonist mode, >35% in antagonist mode, or >50% in the orphan screen (agonist mode). Where these criteria were met, signal-to-noise (S/N) and coefficient of variation (CoV) were also calculated, defined as: […]
# Agonist mode Antagonist modeS/N Compound mean/Baseline mean+(Baseline SD×3) EC80 mean/Compound-(Compound SD× 3)CoV Baseline mean/Compound mean-(Compound SD× 3) Compound mean/EC80 mean-(EC80 SD × 3)
# Hits were verified to have S/N>1 and a CoV <1. Thresholds and subsequent validation were guided by Eurofins. Descriptive data (means ± S.E.M) was generated in Graphpad Prism (version 9.2.0, San Diego, CA).
# T3 sequence (P21554 whole entry): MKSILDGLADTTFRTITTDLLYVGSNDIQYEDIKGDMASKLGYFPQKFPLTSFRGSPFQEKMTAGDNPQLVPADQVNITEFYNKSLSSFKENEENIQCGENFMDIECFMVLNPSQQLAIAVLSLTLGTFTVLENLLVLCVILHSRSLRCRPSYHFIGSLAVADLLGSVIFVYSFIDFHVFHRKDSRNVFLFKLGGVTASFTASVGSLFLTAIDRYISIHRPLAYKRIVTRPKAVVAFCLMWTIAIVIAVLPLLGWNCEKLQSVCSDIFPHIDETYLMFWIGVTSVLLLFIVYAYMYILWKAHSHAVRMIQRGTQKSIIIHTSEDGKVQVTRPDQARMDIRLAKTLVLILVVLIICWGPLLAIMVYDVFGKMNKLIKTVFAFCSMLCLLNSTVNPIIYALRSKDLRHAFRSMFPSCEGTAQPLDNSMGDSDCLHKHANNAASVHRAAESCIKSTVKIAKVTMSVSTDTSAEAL
# Chain of MCHR1 (Q99705 whole entry): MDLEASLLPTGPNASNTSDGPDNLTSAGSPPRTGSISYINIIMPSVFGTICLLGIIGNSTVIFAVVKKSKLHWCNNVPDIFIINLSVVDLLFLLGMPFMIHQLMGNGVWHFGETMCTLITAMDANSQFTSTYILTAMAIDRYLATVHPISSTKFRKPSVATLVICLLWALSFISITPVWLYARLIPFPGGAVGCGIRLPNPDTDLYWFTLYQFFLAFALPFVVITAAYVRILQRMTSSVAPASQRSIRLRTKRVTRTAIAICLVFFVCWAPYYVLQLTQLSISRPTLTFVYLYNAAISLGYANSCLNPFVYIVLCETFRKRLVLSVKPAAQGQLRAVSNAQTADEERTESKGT
# Chain of ADRA2B (P18089 whole entry): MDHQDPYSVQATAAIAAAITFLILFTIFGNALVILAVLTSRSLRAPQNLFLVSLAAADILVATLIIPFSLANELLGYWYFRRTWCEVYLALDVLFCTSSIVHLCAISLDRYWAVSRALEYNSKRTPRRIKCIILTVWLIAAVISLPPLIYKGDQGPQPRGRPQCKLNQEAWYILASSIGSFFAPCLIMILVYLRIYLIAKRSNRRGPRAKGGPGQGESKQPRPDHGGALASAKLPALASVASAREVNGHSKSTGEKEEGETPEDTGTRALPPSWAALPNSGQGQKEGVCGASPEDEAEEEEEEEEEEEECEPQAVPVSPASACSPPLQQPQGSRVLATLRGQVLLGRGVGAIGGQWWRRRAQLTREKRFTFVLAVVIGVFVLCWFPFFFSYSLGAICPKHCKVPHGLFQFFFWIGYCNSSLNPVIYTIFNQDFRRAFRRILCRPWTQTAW
# Chain of HRH1 (P35367 whole entry): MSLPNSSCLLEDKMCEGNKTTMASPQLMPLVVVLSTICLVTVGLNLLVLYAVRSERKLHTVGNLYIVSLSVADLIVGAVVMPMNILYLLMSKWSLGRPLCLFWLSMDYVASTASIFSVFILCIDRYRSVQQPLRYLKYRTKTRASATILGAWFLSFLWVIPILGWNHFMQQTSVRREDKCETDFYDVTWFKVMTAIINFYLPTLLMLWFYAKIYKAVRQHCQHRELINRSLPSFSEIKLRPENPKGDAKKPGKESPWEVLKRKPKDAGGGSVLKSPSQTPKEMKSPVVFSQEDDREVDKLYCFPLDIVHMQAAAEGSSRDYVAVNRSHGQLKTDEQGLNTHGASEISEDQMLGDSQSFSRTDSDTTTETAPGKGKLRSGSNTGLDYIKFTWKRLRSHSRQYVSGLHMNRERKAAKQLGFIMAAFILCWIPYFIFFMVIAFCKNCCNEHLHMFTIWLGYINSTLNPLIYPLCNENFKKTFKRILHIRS
# Chain of DRD2L (P14416 whole entry): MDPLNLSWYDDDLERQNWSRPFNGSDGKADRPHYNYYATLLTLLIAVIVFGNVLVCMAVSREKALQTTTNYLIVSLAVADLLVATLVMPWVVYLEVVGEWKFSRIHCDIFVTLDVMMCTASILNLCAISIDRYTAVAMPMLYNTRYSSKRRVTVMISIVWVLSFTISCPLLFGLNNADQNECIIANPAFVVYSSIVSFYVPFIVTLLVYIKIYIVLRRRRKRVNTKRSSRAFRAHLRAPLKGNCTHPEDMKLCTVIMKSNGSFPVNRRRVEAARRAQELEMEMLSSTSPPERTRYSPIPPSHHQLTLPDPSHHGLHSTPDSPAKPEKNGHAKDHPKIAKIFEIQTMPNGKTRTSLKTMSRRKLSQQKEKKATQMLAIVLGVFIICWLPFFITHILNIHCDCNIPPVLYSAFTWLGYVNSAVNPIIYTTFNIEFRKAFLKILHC
# T1 sequence (P08913 whole entry): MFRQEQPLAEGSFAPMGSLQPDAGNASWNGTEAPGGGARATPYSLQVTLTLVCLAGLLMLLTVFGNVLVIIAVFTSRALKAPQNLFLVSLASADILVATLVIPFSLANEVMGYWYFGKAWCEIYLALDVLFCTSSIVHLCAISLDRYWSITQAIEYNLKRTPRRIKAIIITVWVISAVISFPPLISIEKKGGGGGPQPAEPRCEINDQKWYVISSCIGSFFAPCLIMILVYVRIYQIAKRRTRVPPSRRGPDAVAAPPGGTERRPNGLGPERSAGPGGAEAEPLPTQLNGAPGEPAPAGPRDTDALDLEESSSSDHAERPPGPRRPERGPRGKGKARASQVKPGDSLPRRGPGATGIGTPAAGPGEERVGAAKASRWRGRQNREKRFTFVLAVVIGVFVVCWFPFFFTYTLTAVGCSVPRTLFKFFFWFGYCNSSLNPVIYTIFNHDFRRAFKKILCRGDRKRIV
# Chain of MC4R (P32245 whole entry): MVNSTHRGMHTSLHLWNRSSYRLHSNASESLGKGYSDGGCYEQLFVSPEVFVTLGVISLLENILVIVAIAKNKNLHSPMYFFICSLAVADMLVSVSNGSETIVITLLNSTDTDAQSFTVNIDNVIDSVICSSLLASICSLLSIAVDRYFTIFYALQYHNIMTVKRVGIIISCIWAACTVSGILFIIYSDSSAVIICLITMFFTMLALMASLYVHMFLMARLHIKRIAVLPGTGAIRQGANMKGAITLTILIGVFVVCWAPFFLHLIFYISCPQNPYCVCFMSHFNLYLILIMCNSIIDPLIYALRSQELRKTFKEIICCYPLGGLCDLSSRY
# Chain of MC5R (P33032 whole entry): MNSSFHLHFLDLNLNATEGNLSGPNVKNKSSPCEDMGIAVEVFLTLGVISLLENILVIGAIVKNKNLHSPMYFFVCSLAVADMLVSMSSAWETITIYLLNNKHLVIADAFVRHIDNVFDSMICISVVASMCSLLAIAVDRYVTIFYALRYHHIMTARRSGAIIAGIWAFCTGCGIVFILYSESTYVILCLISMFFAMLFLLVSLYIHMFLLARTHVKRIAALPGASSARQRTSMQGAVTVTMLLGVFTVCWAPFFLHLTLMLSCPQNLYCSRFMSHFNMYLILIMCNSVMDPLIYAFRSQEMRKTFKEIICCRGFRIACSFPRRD
# Chain of OXTR (P30559 whole entry): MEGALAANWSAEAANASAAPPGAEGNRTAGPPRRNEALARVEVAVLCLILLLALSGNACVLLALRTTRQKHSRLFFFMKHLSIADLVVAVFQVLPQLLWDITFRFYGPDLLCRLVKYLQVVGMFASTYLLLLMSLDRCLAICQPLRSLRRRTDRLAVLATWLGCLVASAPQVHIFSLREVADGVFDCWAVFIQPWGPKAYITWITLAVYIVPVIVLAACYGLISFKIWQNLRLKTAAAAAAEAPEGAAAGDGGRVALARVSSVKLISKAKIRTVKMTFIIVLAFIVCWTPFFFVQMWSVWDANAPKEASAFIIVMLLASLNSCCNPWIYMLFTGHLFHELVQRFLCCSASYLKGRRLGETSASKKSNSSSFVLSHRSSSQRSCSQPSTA
# Chain of CALCR-RAMP2 (P30988 25-474): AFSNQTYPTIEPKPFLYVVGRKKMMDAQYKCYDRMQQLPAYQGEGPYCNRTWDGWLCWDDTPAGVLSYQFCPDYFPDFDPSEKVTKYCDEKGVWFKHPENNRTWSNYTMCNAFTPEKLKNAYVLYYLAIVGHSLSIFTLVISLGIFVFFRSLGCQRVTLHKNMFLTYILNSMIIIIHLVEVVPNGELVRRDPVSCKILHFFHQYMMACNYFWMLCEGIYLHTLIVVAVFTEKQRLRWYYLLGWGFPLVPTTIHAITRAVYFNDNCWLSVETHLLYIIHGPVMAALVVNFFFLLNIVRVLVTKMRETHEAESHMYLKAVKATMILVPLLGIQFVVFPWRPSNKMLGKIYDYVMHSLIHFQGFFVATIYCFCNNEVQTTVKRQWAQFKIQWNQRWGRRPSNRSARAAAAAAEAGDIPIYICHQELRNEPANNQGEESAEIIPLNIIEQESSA
# Chain of CALCR-RAMP2 (O60895 43-175 partner): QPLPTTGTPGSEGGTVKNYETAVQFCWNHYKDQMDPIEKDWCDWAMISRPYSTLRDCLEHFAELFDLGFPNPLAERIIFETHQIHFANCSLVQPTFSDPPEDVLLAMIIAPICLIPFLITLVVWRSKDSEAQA
# Chain of DRD5 (P21918 whole entry): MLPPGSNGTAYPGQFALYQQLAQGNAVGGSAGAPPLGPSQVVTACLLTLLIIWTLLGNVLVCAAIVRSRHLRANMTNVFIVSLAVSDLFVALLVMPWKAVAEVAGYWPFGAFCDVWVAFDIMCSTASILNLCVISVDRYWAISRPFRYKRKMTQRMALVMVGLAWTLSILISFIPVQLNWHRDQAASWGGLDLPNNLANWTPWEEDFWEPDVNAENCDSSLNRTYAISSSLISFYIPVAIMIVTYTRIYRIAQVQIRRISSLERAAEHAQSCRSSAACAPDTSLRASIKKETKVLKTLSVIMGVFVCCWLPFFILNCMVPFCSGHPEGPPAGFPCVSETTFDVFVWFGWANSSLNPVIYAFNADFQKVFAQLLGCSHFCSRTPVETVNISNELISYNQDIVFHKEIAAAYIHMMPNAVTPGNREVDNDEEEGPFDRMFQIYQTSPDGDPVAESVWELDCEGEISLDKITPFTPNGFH
smiles,measurement,setting,value
COC(=O)[C@@H](NC(=O)c1nn(Cc2ccc(F)cc2)c2ccccc12)C(C)C [AMB-FUBINACA],IC50,"[1]; antagonist mode (Figure 4), read-out: potencies at targets other than CB1",> 1 µM
same,IC50,"[1]; antagonist mode vs EC80 agonist, concentrations up to 30 μM, read-out: IC50 at 12 receptors (Figure 5)",> 30 µM
same,IC50,DRD5,10.7 µM
same,IC50,MC4R,5.85 µM
same,IC50,MC3R,6.68 µM
same,IC50,ADRA2A,12.1 µM
same,IC50,CHRM3,6.96 µM
same,IC50,CALCRL-RAMP2,10.1 µM
same,IC50,ADRA2B,2.29 µM
same,inhibitory activity at lower concentrations,"ADRA2B; antagonist mode, 1 μM",appreciable inhibitory activity
same,time to peak β-arrestin-2 recruitment,CB1,< 10 min
same,inhibitory activity in concentration-response,GPR35,did not produce any clear activity
same,inhibitory activity in concentration-response,MCHR1,Activity was only observed at the highest concentration (30 μM); also recorded: only inhibited at the highest 30 μM concentration
same,IC50,CALCR-RAMP2,10.8 µM
same,inhibitory activity in concentration-response,GALR2,did not produce any clear activity
same,inhibitory activity in concentration-response,DRD2L,Activity was only observed at the highest concentration (30 μM); also recorded: only inhibited at the highest 30 μM concentration
same,response of CB1-expressing cells at high concentration,"CNR1 (CB1); 30 μM, response decreased above 1 μM",very little activity remaining at 30 μM
same,EC50,CNR1 (CB1); data above 1 μM excluded from curve fitting,0.0426 µM
same,IC50,OXTR,12.8 µM
same,IC50,HCRTR2,12.7 µM
same,IC50,HRH1,1.42 µM
same,inhibitory activity at lower concentrations,"HRH1; antagonist mode, 1 μM",appreciable inhibitory activity
same,IC50,MC5R,14.1 µM
same,IC50,"HCRTR1; antagonist mode vs EC80 of control agonist, 10-point curve",8.59 µM
same,maximum inhibition,"HCRTR1; antagonist mode, concentration-response up to 30 μM",73.00%
same,IC50,FPR1,7.91 µM
same,"mean inhibition 30 μM, targets with >5-fold difference in S/N and CoV (n = 36)",168 GPCRs,97.00 ± 2.54%
same,mean inhibition of targets inhibited above 35% threshold,168 GPCRs,81.16%
same,number of off-targets inhibited (>35%),168 GPCRs,inhibited the greatest number of targets
